Read-outs that look alike come from different tables or passages of the source.
How the values were obtained:
[1] = tested on: Mouse retinal ganglion cells (RGCs); test: Live-dead assay of cultured mouse RGCs (Cellomics VTI HCS reader), live cell count; details: approximately 2 days culture, various concentrations, FIG. 4
mouse RGCs [2] = test: RGC survival in purified primary mouse RGC culture (high-content screening, Calcein AM/Hoechst/Ethidium Homodimer-1); type: cell-based
Method: Purified mouse RGCs were grown in Neurobasal, 2% B27, 1% N2 supplement, 0.5 mM glutamine. […] Increasing concentrations of kinase inhibitors were present in the media as indicated. Viability and neurite growth of RGCs were assayed by a combined staining with Calcein AM, Hoechst, and Ethidium Homodimer-1. The images were taken and processed by Cellomics Kineticscan.
RGC survival and neurite growth were quantitatively measured as average surviving RGCs/field (4 mm^2) (FIG. 2C), total neurite length per RGC (FIG. 2D), average neurite length per RGC (FIG. 2E), and total neurite count per RGC (FIG. 2F).

mouse RGCs [3] = test: RGC neurite growth in purified primary mouse RGC culture (high-content screening); type: cell-based; details: Example 4, at 100 nM
Method: Purified mouse RGCs were grown in Neurobasal, 2% B27, 1% N2 supplement, 0.5 mM glutamine. 2 μM forskolin was present in all the conditions except vehicle control with DMSO (dark bar), for 60 hours. Increasing concentrations of kinase inhibitors were present in the media as indicated. Viability and neurite growth of RGCs were assayed by a combined staining with Calcein AM, Hoechst, and Ethidium Homodimer-1. The images were taken and processed by Cellomics Kineticscan. […] Error bars: S.E.M.
RGC survival and neurite growth were quantitatively measured as average surviving RGCs/field (4 mm^2) (FIG. 2C), total neurite length per RGC (FIG. 2D), average neurite length per RGC (FIG. 2E), and total neurite count per RGC (FIG. 2F). Error bars: S.E.M.
To enhance the assay sensitivity, the culture condition is defined to support a baseline level of RGC viability (20˜60% surviving RGCs after three days in culture) and neurite growth by 2.5 μM forskolin.

mouse RGCs [4] = type: in vivo; details: for RGC loss / RGC survival after optic nerve injury: intravitreal injection of 1 μl (2 mM) every three days for nine days
Description: . Mouse optic nerve crush is a well-established animal model in mimicking the pathological conditions in which the primary injury sites are focal to RGC axons such as in glaucoma, AION, traumatic optic neuropathy, and multiple sclerosis. Specific RGC loss following nerve crush, which largely spares displaced amacrine cells in GCL, is thought to result from incomplete understood mechanism that implicates the blockage of retrograde axonal transport and subsequently impaired neurotrophin signaling, and excitotoxicity etc. In addition, mouse optic nerve crush has been successfully employed as an experimental system to identify the genetic nature controlling RGC susceptibility to axon injury.
During the procedure, the optic nerve was carefully exposed through a post-orbital approach, and crushed with a self-closing forceps for three seconds. […] Since RGCs populate ˜60% cells in rodent GCL, the estimated surviving RGC is ˜57.3%. […]. […]

activated Caspase-3 = test: Activated Caspase-3 positive (apoptotic) cells in GCL after mouse optic nerve crush; type: in vivo; details: three days following nerve crush, systemic treatment
Description: Apoptosis has been identified as the major form of RGC death in many, if not all, degenerative conditions targeting their axons, and in mouse optic nerve.

RGC = RGC survival under Flt3 ligand with or without sunitinib; type: cell-based
mouse RGCs [5] = test: Excitotoxicity (glutamate, KA, NMDA, AMPA) in purified mouse RGCs in vitro; type: cell-based; details: 1 μM sunitinib
Method: Neuronal toxicity of excitatory amino acid glutamate and its analogue NMDA is implicated in a number of neurodegenerative conditions that involve RGC, such as glaucoma, optic neuropathies of trauma and other origins, and that affect other CNS structures, such as Alzheimer's disease, Parkinson's disease, Huntington's disease, stroke, and […] (ALS). […] RGC viability was measured and the percentage of RGC loss due to the excitotoxicity was calculated.

FLT3 = target: T1, FLT3 (Homo sapiens, UniProt P36888); details: cited from earlier work
T1 sequence (P36888 27-993): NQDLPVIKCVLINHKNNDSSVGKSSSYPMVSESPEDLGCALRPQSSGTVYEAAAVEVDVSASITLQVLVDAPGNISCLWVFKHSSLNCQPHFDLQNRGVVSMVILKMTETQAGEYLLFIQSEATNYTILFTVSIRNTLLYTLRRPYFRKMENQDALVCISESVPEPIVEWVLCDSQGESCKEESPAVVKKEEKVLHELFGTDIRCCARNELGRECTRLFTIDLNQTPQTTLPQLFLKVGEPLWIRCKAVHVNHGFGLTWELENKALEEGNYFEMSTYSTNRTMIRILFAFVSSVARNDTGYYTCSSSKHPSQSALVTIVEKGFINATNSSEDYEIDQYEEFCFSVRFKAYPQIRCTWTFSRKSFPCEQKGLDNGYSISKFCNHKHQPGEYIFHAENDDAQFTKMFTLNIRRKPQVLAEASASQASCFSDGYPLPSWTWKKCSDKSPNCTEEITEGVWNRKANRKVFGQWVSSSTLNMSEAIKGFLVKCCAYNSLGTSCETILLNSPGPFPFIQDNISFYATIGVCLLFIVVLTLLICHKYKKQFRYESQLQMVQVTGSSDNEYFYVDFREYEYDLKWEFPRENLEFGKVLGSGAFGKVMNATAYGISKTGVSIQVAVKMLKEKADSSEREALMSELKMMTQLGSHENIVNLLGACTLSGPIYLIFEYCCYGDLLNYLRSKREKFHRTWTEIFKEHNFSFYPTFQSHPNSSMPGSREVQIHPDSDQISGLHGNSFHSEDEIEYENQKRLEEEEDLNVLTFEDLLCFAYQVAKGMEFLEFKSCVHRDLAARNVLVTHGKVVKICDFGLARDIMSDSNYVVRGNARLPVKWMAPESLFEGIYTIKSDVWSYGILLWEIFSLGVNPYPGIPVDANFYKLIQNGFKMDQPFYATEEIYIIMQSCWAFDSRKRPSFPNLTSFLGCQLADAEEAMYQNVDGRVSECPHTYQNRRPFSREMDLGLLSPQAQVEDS

CN(C)S(=O)(=O)c1ccc2c(c1)/C(=C/c1cc3c([nH]1)CCCC3)C(=O)N2 [SU6656, (3Z)—N,N-dimethyl-2-oxo-3-(4,5,6,7-tetrahydro-1H-indol-2-ylmethylidene)-1H-indole-5-sulfonamide]
RGC survival (live cell count) [1]: significantly increased RGC survival

CNC(=O)c1cc(Oc2ccc(NC(=O)Nc3ccc(Cl)c(C(F)(F)F)c3)cc2)ccn1 [Sorafenib]
pro-surviving activity on RGCs (mouse RGCs [2]; Example 4, clinical protein kinase inhibitors, purified primary mouse RGC culture): lacking strong protective activity to RGC | RGC neurite growth (mouse RGCs [3]): stimulate neurite growth as potently as sunitinib (1 μM)

O=C(NC1CCOCC1)c1ccc(-c2cc(-c3c[nH]nc3-c3ccccn3)ccn2)cc1 [TGF-beta receptor inhibitor]
RGC loss / RGC survival after optic nerve injury (mouse RGCs [4]): capable of reducing RGC loss | RGC loss / RGC survival after optic nerve injury (mouse RGCs [4]; listed as drawing 10): increased RGC survival

CCN(CC)CCNC(=O)c1c(C)[nH]c(/C=C2\C(=O)Nc3ccc(F)cc32)c1C [sunitinib, N-[2-(diethylamino)ethyl]-5-[(Z)-(5-fluoro-1,2-dihydro-2-oxo-3H-indol-3-ylidine)methyl]-2,4-dimethyl-1H-pyrrole-3-carboxamide]
toxicity to RGC in vitro (mouse RGCs [2]; concentrations higher than 1 μM): higher concentrations exhibit toxicity | reduction of number of apoptotic cells in GCL (activated Caspase-3): 38.9% | projected surviving RGCs (mouse RGCs [4]; mouse, in vivo): 79.2% | appearance of retina (mouse RGCs [4]; mouse, in vivo, 15 mg/kg/day): obvious yellow appearance | cells in GCL survived (mouse RGCs [4]; systemic administration of 5 mg/kg/day for ten days after optic nerve crush): ~88.5% | antagonism of detrimental effects of Flt31 on RGC (RGC; Flt31 at 16 ng/ml, sunitinib present in the media): 1.4 fold | reduction of RGC loss caused by AMPA (mouse RGCs [5]; 100 μM AMPA): 4 folds | reduction of RGC loss caused by NMDA (mouse RGCs [5]; 100 μM NMDA): ~10 folds

B1: Flt31: Flt3 ligand, RTK ligand (protein, UniProt P49771 27-235, looked up)
Fms-related tyrosine kinase 3 …: TQDCSFQHSPISSDFAVKIRELSDYLLQDYPVTVASNLQDEELCGGLWRLVLAQRWMERLKTVAGSKMQGLLERVNTEIHFVTKCAFQPPPSCLRFVQTNISRLLQETSEQLVALKPWITRQNFSRCLELQCQPDSSTLPPPWSPRPLEATAPTAPQPPLLLLLLLPVGLLLLAAAWCLHWQRTRRRTPRPGEQVPPVPSPQDLLLVEH
effect on RGC survival (RGC; Flt31 at 4 ng/ml): did not appear to affect RGC survival | compromise of the pro-surviving activity of sunitinib (RGC; Flt31 at 4 ng/ml with sunitinib): 36.6% | reduction of RGC survival (RGC; Flt31 at 16 ng/ml): 38.3% | EC50 (FLT3): 4 ng/mL
